What was measured:
[1] = tested on: golden Syrian hamster previously fed with a cholesterol rich diet; test: Lipoprotein cholesterol profile by gel filtration in cholesterol-fed hamsters (FIG. 7); format: in vivo; settings: 5 mg/kg oral once a day for 3 days
Method: (§1) The in vivo activity of SCAP antagonist was determined in the golden Syrian hamster previously fed with a cholesterol rich diet. Male Syrian golden hamsters (Janvier, France) were kept on a 12 h light-dark cycle. Animals (7 weeks age, 150 g) were fed for 2 weeks with a high cholesterol diet containing 0.2% cholesterol plus 10% coconut oil. Animals (n=5 per group) were then treated orally with vehicle, (0.5% methylcellulose, 5% Tween 80) or Example 1 at 1, 5 or 20 mg/kg in the vehicle, once a day for 3 days.
(§2) 4h after the last treatment, animals were anesthetized, blood was collected and serum was prepared by centrifugation. Total cholesterol was determined using a enzymatic assay kit (Biomerieux, France). Lipoproteins were separated by ultracentrifugation using a single KBr concentration (density 1.063). Cholesterol and triglycerides associated with the upper phase (corresponding to VLDL +LDL lipoproteins) and cholesterol associated with the lower phase (corresponding to the HDL fraction) were determined using the enzymatic assays kits. Apolipoprotein B100 associated with VLDL and LDL lipoprotein fraction were analysed by SDS-PAGE and Coomassie blue staining. Lipoproteins were also separated by high-performance gel filtration chromatography with on-line colorimetric determination of cholesterol. Lipoprotein separation was performed on a single superose 6HR column (Pharmacia) with an elution buffer consisting of 10 mM tris, 1 mM EDTA and 150 mM NaCl adjusted at pH 7.4. Cholesterol was measured on line using the RTU enzymatic assay (Biomerieux). The column was calibrated using human lipoproteins and the various peaks in cholesterol profiles are designated VLDL, LDL and HDL for simplicity.
(§3) Cholesterol-fed animals were treated for 3 days with Example 1 at 1 and 20 mg/kg. […] In another experiment, lipoproteins were separated by gel filtration and cholesterol content was quantified on-line. As shown in FIG. 7 Example 1 at […] strongly reduces atherogenic particles: 79% reduction of VLDL cholesterol and 60% reduction of LDL-cholesterol.

[2] = tested on: golden Syrian hamster previously fed with a cholesterol rich diet; test: Lipoprotein and lipid in sera of cholesterol-fed hamsters (ultracentrifugation, enzymatic assays, SDS-PAGE); format: in vivo; settings: for apoB100: VLDL and LDL fraction; for reduction of LDL-cholesterol / reduction of triglycerides: Table 1
Method: as §1, §2, §3

[3] = tested on: HepG2 cells; test: Uptake of Dil-LDL by HepG2 cells; format: cell-based; settings: 0.5 μM, 24 hours, Dil-LDL 6 μg/ml for last 4 hours, FIG. 5
Method: To determine if activation of LDL-receptor promoter also translated into an increase in functional LDL receptors, an LDL uptake assay was set up. HepG2 cells seeded at 8 10^4 cells per 8 well Biocoat slides (Beckton Dickinson) were treated with SCAP antagonist or 25OH-cholesterol for 20h and then incubated with 6 μg/ml of fluorescent Dil-LDL for 4 hours. The amount of fluorescent dye that accumulated in the lysosomes was quantified by fluorescence microscopy using Axioplan-2 Zeiss microscope equipped with DXC950P video camera (Sony) and red fluorescence filters.
HepG2 cells were treated for 24 hours in the presence of 0.5 μM Example 1 or 10 μM 25OH-cholesterol. Dil-LDL (6 μg/ml) were added 4 hours before the end of the incubation. Cells were washed and observed by fluorescence microscopy using rhodamine filters and video camera with fixed settings.

[4] = 1 mg/kg oral once a day for 3 days
[5] = 1 mg/kg oral once a day for 3 days, serum 4h after last treatment
[6] = 20 mg/kg oral once a day for 3 days
[7] = 20 mg/kg oral once a day for 3 days, serum 4h after last treatment

CCOc1cc(CC)ccc1C1CCN(CCCCNC(=O)c2ccc(NC(=O)c3ccc(Cl)cc3)cc2)CC1 [Example 1, 4-(4-Chloro-benzoylamino)-N-{4-[4-(2-ethoxy-4-ethyl-phenyl)-piperidin-1-yl]-butyl}-benzamide]
increase of cholesterol contained in HDL particles [1]: 25%
reduction of LDL-cholesterol [1]: 60%
reduction of VLDL cholesterol [1]: 79%
melting point: 250 °C
CHOLESTEROL HDL chol, % of control [2, 4]: 123%
CHOLESTEROL LCLchol, % of control [2, 4]: 50%
CHOLESTEROL TOTAL, % of control [2, 4]: 79%
Triglycerides TOTAL, % of control [2, 4]: 37% (p < 0.001)
apoB100, % of control [2, 4]: 62% (p < 0.005)
apoB100 [2, 4]: 3.1 ± 0.4 S.U.
CHOLESTEROL HDL chol [2, 5]: 1.5 ± 0.1 g/L
CHOLESTEROL LCLchol [2, 5]: 0.95 ± 0.2 g/L
CHOLESTEROL TOTAL [2, 5]: 3.1 ± 0.3 g/L
Triglycerides TOTAL [2, 5]: 1.3 ± 0.2 g/L
reduction of LDL-cholesterol ([2]; 1 mg/kg, 3 days): 50%
reduction of triglycerides ([2]; 1 mg/kg, 3 days): 63%
CHOLESTEROL HDL chol, % of control [2, 6]: 113% NS
CHOLESTEROL LCLchol, % of control [2, 6]: 17%
CHOLESTEROL TOTAL, % of control [2, 6]: 55%
Triglycerides TOTAL, % of control [2, 6]: 24% (p < 0.001)
apoB100, % of control [2, 6]: 25% (p < 0.005)
apoB100 [2, 6]: 1.2 ± 0.2 S.U.
CHOLESTEROL LCLchol [2, 7]: 0.3 ± 0.1 g/L
CHOLESTEROL TOTAL [2, 7]: 2.1 ± 0.3 g/L
Triglycerides TOTAL [2, 7]: 0.8 ± 0.02 g/L
reduction of LDL-cholesterol ([2]; 20 mg/kg, 3 days): 83%
reduction of triglycerides ([2]; 20 mg/kg, 3 days): 76%
effect on Apolipoprotein B100 ([2]; 1 and 20 mg/kg, 3 days): reduced to the same extent
effect on HDL-cholesterol ([2]; 1 and 20 mg/kg, 3 days): unaffected
LDL uptake (Dil-LDL fluorescence) [3]: markedly increased the LDL uptake

Reference: patent US6673555B1, “Methods of using SCAP antagonists” (SmithKline Beecham Corporation, priority 1999, dated 2004)
